These results are taken from patent US20260062412A1, “NITROGEN-CONTAINING HETEROCYCLIC COMPOUND HAVING MYT1 INHIBITORY ACTIVITY” (CHUGAI SEIYAKU KABUSHIKI KAISHA, priority 2023, published 2026).

In one test the test system is LU65. The test is described as follows: Cytotoxicity test with pemetrexed upon addition of each example compound (CellTiter-Glo). The class given is cell-based, human. The following applies: combination with pemetrexed, LU65 cells, 7 days; maximum value, at the MYT1 inhibitor and pemetrexed concentrations. Here is the method:
LU65 (received from human tissue bank (JCRB Cell Bank)) was used in the evaluation of the present invention. LU65 is a lung cancer cell line having a truncated deletion mutation of S82* in RB1 gene (see Nature. 2019 May; 569(7757): 503-508. (Non Patent Literature 22)), in which the function of RB1 is decreased. The cell culture was carried out using RPMI-1640 (manufactured by SIGMA) containing 10% FBS (manufactured by SIGMA).
Each pemetrexed (manufactured by Tokyo Kasei Kogyo Co., Ltd.) and each example compound of each concentration were diluted using a DMSO solution, and 0.04 μL of each of series of dilution and DMSO was added to each well of cell culture plate using Echo 555 Liquid Handler (manufactured by Beckman Coulter Inc.). 1000 LU65 cells ([…]) were added to each well, which was cultured at 37° C. in a 5% CO2 incubator for 7 days. Intracellular ATP level which is a cell survival marker was measured and used in the monitoring of cell number. After culturing, 20 μL of CellTiter-Glo (registered trademark) 2.0 (manufactured by Promega) was added to each well, and the emission intensity was measured using Multimode Plate Reader En Vision (registered trademark) Xcite (manufactured by PerkinElmer). The cell survival rate under each condition was calculated by setting the value obtained by subtracting the luminescence of the cell unseeded well from the luminescence of the DMSO-added well as 100%, and calculating the proportion of a value obtained by subtracting the luminescence of the cell unseeded well from the luminescence detected at each well.
In addition, the cytotoxic activity under each condition was calculated by subtracting the survival rate in a combination of pemetrexed of each treatment concentration and each example compound of each treatment concentration, from 100%.
(In general: Cellular ATP, detected with luciferase, serves as a proxy for viable cell number.)

In test [1] the target is T1, MYT1 protein (Homo sapiens (Human), UniProt Q99640). The test is described as follows: Test for binding to ATP binding site of MYT1 (Kinase Tracer 178 / Eu-Anti-GST antibody TR-FRET). The settings on record: ATP binding site of MYT1, 30 minutes at room temperature. (In general: Time-resolved FRET reads energy transfer from a long-lived donor to a nearby acceptor.)
T1 sequence (Q99640 whole entry): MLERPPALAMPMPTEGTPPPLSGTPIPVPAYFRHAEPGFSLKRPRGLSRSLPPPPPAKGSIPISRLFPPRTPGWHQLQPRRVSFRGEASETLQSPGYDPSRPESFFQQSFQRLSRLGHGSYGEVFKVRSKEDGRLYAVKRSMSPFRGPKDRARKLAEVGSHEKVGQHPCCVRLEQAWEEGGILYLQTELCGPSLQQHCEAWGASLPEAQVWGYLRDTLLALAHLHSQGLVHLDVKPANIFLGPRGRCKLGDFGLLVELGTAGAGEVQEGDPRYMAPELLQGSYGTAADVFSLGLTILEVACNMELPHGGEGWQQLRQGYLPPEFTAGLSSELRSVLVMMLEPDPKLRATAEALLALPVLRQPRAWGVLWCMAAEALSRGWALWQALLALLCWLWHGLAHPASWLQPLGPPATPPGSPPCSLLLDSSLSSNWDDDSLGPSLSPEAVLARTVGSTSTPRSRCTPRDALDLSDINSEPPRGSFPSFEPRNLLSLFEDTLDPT
Test [2] deals with T1, MYT1 protein. The test is described as follows: MYT1 kinase activity inhibition test (ELISA, phosphorylation of Y15 of CDK1). The class given is biochemical. The following applies: phosphorylation level of Y15 of CDK1 protein caused by MYT1 protein, 60 minutes. Here is the method: The MYT1 kinase activity inhibitory capacity of each compound was evaluated by evaluating the phosphorylation level of Y15 of CDK1 protein caused by MYT1 protein, by ELISA. The kit of CycLex Weel Kinase Assay/Inhibitor Screening Kit Ver. 3 (manufactured by MBL, CY-1172V3) was used. Using Kinase Buffer, 10 μL of 5 nM MYT1 protein (manufactured by Carna Biosciences, Inc.) was prepared. In addition, 30 μL of 83.3 μM of ATP was prepared using Kinase Buffer. In addition, 10 μL of each compound was diluted to each concentration using Kinase Buffer. 30 μL of ATP was added to the plate of the kit, and thereafter, 10 μL of each compound was added thereto. Further, 10 μL of the diluted MYT1 protein solution was added thereto, and then the mixture was mixed, which was allowed to stand at room temperature for 60 minutes. The reaction solution was removed from each well, and each well was washed using Wash Buffer. After Wash Buffer was removed, 100 μL of HRP conjugated Anti-phospho-tyrosine antibody was added to each well, which was allowed to stand at room temperature for 60 minutes. Thereafter, the reaction solution was removed from each well, and each well was washed using Wash Buffer. After Wash Buffer was removed, 100 μL of Substrate Reagent was added to each well, which was allowed to stand at room temperature for 8 minutes. Thereafter, 100 μL of Stop Solution (1 N sulfuric acid) was added to each well according to the manual. Absorbances at 450 nm and 590 nm were measured using Envision (manufactured by PerkinElmer). The phosphorylation level of CDK1 protein was evaluated for each well by subtracting the absorbance at 590 nm from the absorbance at 450 nm. The inhibition rate of each compound added at each concentration was calculated by setting the signal when the compound was not added as 100% and the signal when MYT1 protein was not added as 0%, and the calculation results of IC50 were shown in Table 4.

As usually defined, the IC50 is the concentration at which inhibition is half-maximal. Low values mean higher potency, high ones lower potency. Take `Nc1c(-c2c(F)ccc3[nH]ncc23)c2cc(C3CC3)c3ncccc3c2[nH]c1=O` (racemic) [Compound C156, 3-Amino-6-cyclopropyl-4-(5-fluoro-1H-indazol-4-yl)-1H-1,7-phenanthrolin-2-one]: the “Bliss Score (Max)” value in the test on LU65 is listed as 51%. In addition, in the test with LU65, the “HSA Score (MAX)” value was determined as 59%. Besides, the values for the IC50 on MYT1 protein [1] and at MYT1 protein [2] were 2.1 nM and 6.2 nM, respectively.
The like results for `Nc1c(-c2ccc(Cl)c3[nH]ncc23)c2cc(Cl)ccc2[nH]c1=O` [Compound A59, 3-Amino-6-chloro-4-(7-chloro-1H-indazol-4-yl)-1H-quinolin-2-one] were, in that order, 55%, 58%, 5.8 nM and 0.6 nM.
The like results for `Nc1c(-c2cccc(O)c2)c2cc(C3CC3)c3ccccc3c2[nH]c1=O` [Compound B3, 3-Amino-6-cyclopropyl-4-(3-hydroxyphenyl)-1H-benzo[h]quinolin-2-one] were, in that order, 78%, 77%, 7.3 nM and 0.52 nM.
The like results for `Nc1c(-c2ccc(F)c3[nH]ncc23)c2cc(C3CC3)c3ccccc3c2[nH]c1=O` [Compound B22, 3-Amino-6-cyclopropyl-4-(7-fluoro-1H-indazol-4-yl)-1H-benzo[h]quinolin-2-one] were, in that order, 56%, 64%, 11 nM and 0.25 nM.
In the case of `CCc1cc2c(-c3ccc(F)c4[nH]ncc34)c(N)c(=O)[nH]c2c2ccccc12` [Compound B23, 3-Amino-6-ethyl-4-(7-fluoro-1H-indazol-4-yl)-1H-benzo[h]quinolin-2-one], the “Bliss Score (Max)” value with LU65 came to 58%. The “HSA Score (MAX)” value in the test on LU65 is recorded as 63%. Moreover, the IC50 at MYT1 protein [1] amounted to 8.3 nM; against MYT1 protein [2], 0.26 nM.
With `Nc1c(-c2ccc(F)c3[nH]ncc23)c2cc(C3CCC3)c3ccccc3c2[nH]c1=O` [Compound B24, 3-Amino-6-cyclobutyl-4-(7-fluoro-1H-indazol-4-yl)-1H-benzo[h]quinolin-2-one], in the test on LU65, the “Bliss Score (Max)” value amounted to 52% and the “HSA Score (MAX)” value is 60%. Further, the IC50 on MYT1 protein [1] was 16 nM. This molecule also yielded an IC50 against MYT1 protein [2] of 0.62 nM.
In the case of `Nc1c(-c2ccc(F)c3[nH]ncc23)c2ccc3ccccc3c2[nH]c1=O` [Compound B32, 3-Amino-4-(7-fluoro-1H-indazol-4-yl)-1H-benzo[h]quinolin-2-one], in the test on LU65, the “Bliss Score (Max)” value is 52% and the “HSA Score (MAX)” value is 63%. The molecule also showed an IC50 on MYT1 protein [1] of 3 nM. Besides, the concentration for half-maximal inhibition (IC50) at MYT1 protein [2] was determined as 0.26 nM.
Turning to `Nc1c(-c2ccc(F)c3[nH]ncc23)c2cc(F)c3ccccc3c2[nH]c1=O` [Compound B35, 3-Amino-6-fluoro-4-(7-fluoro-1H-indazol-4-yl)-1H-benzo[h]quinolin-2-one], in the test with LU65, the “Bliss Score (Max)” value worked out at 61% and the “HSA Score (MAX)” value was 70%. This molecule also gave an IC50 on MYT1 protein [1] of 3.7 nM. This molecule also showed an IC50 against MYT1 protein [2] of 0.44 nM.
With `Nc1c(-c2ccc(Cl)c3[nH]ncc23)c2cc(C3CC3)c3ccccc3c2[nH]c1=O` [Compound B37, 3-Amino-4-(7-chloro-1H-indazol-4-yl)-6-cyclopropyl-1H-benzo[h]quinolin-2-one], the “Bliss Score (Max)” value with LU65 stood at 31%. In addition, the “HSA Score (MAX)” value in the test with LU65 stood at 34%. Moreover, the IC50 at MYT1 protein [1] came to 6 nM; against MYT1 protein [2], 0.75 nM.
`Nc1c(-c2cccc3[nH]ncc23)c2ccc3ccccc3c2[nH]c1=O` [Compound B46, 3-Amino-4-(1H-indazol-4-yl)-1H-benzo[h]quinolin-2-one]: in the test on LU65, the “Bliss Score (Max)” value was 52% and the “HSA Score (MAX)” value stood at 65%. The molecule also showed an IC50 on MYT1 protein [1] of 6.3 nM. Also, on MYT1 protein [2], the IC50 came to 6.4 nM.
`Nc1c(-c2cccc3[nH]ncc23)c2cc(C3CC3)c3ccc(F)cc3c2[nH]c1=O` [Compound B47, 3-Amino-6-cyclopropyl-9-fluoro-4-(1H-indazol-4-yl)-1H-benzo[h]quinolin-2-one]: in the test on LU65, the “Bliss Score (Max)” value is recorded as 54% and the “HSA Score (MAX)” value is recorded as 62%. This molecule also displayed an IC50 on MYT1 protein [1] of 10 nM. On MYT1 protein [2], half-maximal inhibition (IC50) required 1.1 nM.
For `Cl.Nc1c(-c2cccc3[nH]ncc23)c2cc(C3CC3)c3cc(F)ccc3c2[nH]c1=O` [Compound B48, 3-Amino-6-cyclopropyl-8-fluoro-4-(1H-indazol-4-yl)-1H-benzo[h]quinolin-2-one; hydrochloride], in the test with LU65, the “Bliss Score (Max)” value came to 66% and the “HSA Score (MAX)” value is reported as 70%. The molecule also displayed a concentration for half-maximal inhibition (IC50) at MYT1 protein [1] of 18 nM. This molecule also displayed an IC50 on MYT1 protein [2] of 2.5 nM.
Turning to `Nc1c(-c2cccc3[nH]ncc23)c2cc(C3CC3)c3ccccc3c2[nH]c1=O` [Compound B49, 3-amino-6-cyclopropyl-4-(1H-indazol-4-yl)-1H-benzo[h]quinolin-2-one], in the test on LU65, the “Bliss Score (Max)” value was found to be 86% and the “HSA Score (MAX)” value is 84%. Moreover, the half-maximal inhibitory concentration (IC50) on MYT1 protein [1] worked out at 6.2 nM. The same molecule had an IC50 at MYT1 protein [2] of 6.4 nM.
For `Nc1c(-c2ccc(F)c3[nH]ncc23)c2cc(Br)c3ncccc3c2[nH]c1=O` [Compound C1, 3-amino-6-bromo-4-(7-fluoro-1H-indazol-4-yl)-1H-1,7-phenanthrolin-2-one], the “Bliss Score (Max)” value with LU65 was 59%. The “HSA Score (MAX)” value with LU65 is 71%. Also, the half-maximal inhibitory concentration (IC50) was 2 nM on MYT1 protein [1] and under 0.17 nM on MYT1 protein [2].
`COc1cc2c(-c3ccc(F)c4[nH]ncc34)c(N)c(=O)[nH]c2c2cccnc12` [Compound C4, 3-Amino-4-(7-fluoro-1H-indazol-4-yl)-6-methoxy-1H-1,7-phenanthrolin-2-one]: in the test with LU65, the “Bliss Score (Max)” value stood at 61% and the “HSA Score (MAX)” value was found to be 62%. Moreover, the IC50 at MYT1 protein [1] came to 1.3 nM. In addition, at MYT1 protein [2], it took 0.15 nM to reach half-maximal inhibition (IC50).
Consider `CCOc1cc2c(-c3ccc(F)c4[nH]ncc34)c(N)c(=O)[nH]c2c2cccnc12` [Compound C8, 3-Amino-6-ethoxy-4-(7-fluoro-1H-indazol-4-yl)-1H-1,7-phenanthrolin-2-one], for which the “Bliss Score (Max)” value in the test on LU65 amounted to 68%. Further, the “HSA Score (MAX)” value in the test on LU65 stood at 78%. For the same molecule, the IC50 at MYT1 protein [1] worked out at 1.6 nM; against MYT1 protein [2], 0.3 nM.
The like results for `CC(C)Oc1cc2c(-c3ccc(F)c4[nH]ncc34)c(N)c(=O)[nH]c2c2cccnc12` [Compound C13, 3-Amino-4-(7-fluoro-1H-indazol-4-yl)-6-propan-2-yloxy-1H-1,7-phenanthrolin-2-one] were, in that order, 62%, 66%, 1.4 nM and 0.15 nM.
As to `Nc1c(-c2ccc(F)c3[nH]ncc23)c2cc(F)c3ncccc3c2[nH]c1=O` [Compound C64, 3-Amino-6-fluoro-4-(7-fluoro-1H-indazol-4-yl)-1H-1,7-phenanthrolin-2-one], the “Bliss Score (Max)” value in the test on LU65 is given as 45%. For the same molecule, the “HSA Score (MAX)” value with LU65 was determined as 54%. In addition, the IC50 was 7.4 nM at MYT1 protein [1] and 0.2 nM against MYT1 protein [2].
Regarding `COc1cc2c(-c3cc(F)c(F)c4[nH]ncc34)c(N)c(=O)[nH]c2c2cccnc12` [Compound C65, 3-Amino-4-(6,7-difluoro-1H-indazol-4-yl)-6-methoxy-1H-1,7-phenanthrolin-2-one], in the test on LU65, the “Bliss Score (Max)” value was 53% and the “HSA Score (MAX)” value is listed as 58%. The same molecule gave an IC50 at MYT1 protein [1] of 3.2 nM. The same molecule yielded an IC50 on MYT1 protein [2] of 0.083 nM.
